Values of other authors, collected in US20260335282A1, “NOVEL 3-ARYLIDENE-2-INDOLINONE DERIVATIVES FOR THERAPEUTIC USE” (ISTANBUL UNIVERSITESI REKTORLUGU, priority 2022, published 2026).

Columns and labels:
HT-29 and MKN-45 cells = details: Wang et al. 2021; cited from earlier work
angiogenesis = details: transgenic zebrafish, Wang et al. 2021; cited from earlier work
VEGFR-2 = details: Wang et al. 2021; cited from earlier work
HUVEC cell line = details: Wang et al. 2021; cited from earlier work

Cc1ccc(-n2cc(-c3ccc(/C=C4\C(=O)Nc5ccccc54)cc3)nn2)cc1 [III]
cytotoxicity vs sunitinib (HT-29 and MKN-45 cells): better cytotoxicity on HT-29 and MKN-45 cells
inhibitory effect on angiogenesis (angiogenesis): confirmed in vivo
inhibitory activity on VEGFR-2 vs sunitinib (VEGFR-2): greater inhibitory activity on VEGFR-2
toxicity to HUVEC vs sunitinib (HUVEC cell line): less toxic to HUVEC cell line than sunitinib
